Source: BigSolDB 2.1

`CC1(C)COP(=O)(C(C)(C)O)OC1` showed a solubility (mole fraction) (in 1,2-dichloroethane, 283.65 K) of 0.00134, a solubility (mole fraction) (in 1,2-dichloroethane, 288.55 K) of 0.00156 and a solubility (mole fraction) (in 1,2-dichloroethane, 293.65 K) of 0.00196. For the same compound, the solubility (mole fraction) (in 1,2-dichloroethane, 298.25 K) was 0.00249, the solubility (mole fraction) (in 1,2-dichloroethane, 303.15 K) was 0.00308 and the solubility (mole fraction) (in 1,2-dichloroethane, 308.05 K) was 0.00418. For the same compound, the solubility (mole fraction) (in 1,2-dichloroethane, 313 K) was 0.00519, the solubility (mole fraction) (in 1,2-dichloroethane, 317.8 K) was 0.00654 and the solubility (mole fraction) (in 1,2-dichloroethane, 322.7 K) was 0.00788. The solubility (mole fraction) (in acetone, 278.15 K) was 0.0024, the solubility (mole fraction) (in acetone, 283.65 K) was 0.00286 and the solubility (mole fraction) (in acetone, 288.25 K) was 0.00329. The solubility (mole fraction) (in acetone, 293.75 K) was 0.00415, the solubility (mole fraction) (in acetone, 298.65 K) was 0.00505 and the solubility (mole fraction) (in acetone, 303.15 K) was 0.00596. It also gave a solubility (mole fraction) (in acetone, 308.05 K) of 0.007, a solubility (mole fraction) (in acetone, 312.95 K) of 0.00821 and a solubility (mole fraction) (in acetone, 317.75 K) of 0.00998. The solubility (mole fraction) (in acetone, 322.55 K) was 0.0118, the solubility (mole fraction) (in acetonitrile, 278.65 K) was 0.00174 and the solubility (mole fraction) (in acetonitrile, 283.65 K) was 0.00222. It also gave a solubility (mole fraction) (in acetonitrile, 288.85 K) of 0.00295, a solubility (mole fraction) (in acetonitrile, 293.75 K) of 0.00357 and a solubility (mole fraction) (in acetonitrile, 298.25 K) of 0.00413. It also gave a solubility (mole fraction) (in acetonitrile, 303.2 K) of 0.00513, a solubility (mole fraction) (in acetonitrile, 308.15 K) of 0.00629 and a solubility (mole fraction) (in acetonitrile, 312.9 K) of 0.00754. For the same compound, the solubility (mole fraction) (in acetonitrile, 318.3 K) was 0.00901, the solubility (mole fraction) (in acetonitrile, 322.8 K) was 0.0111 and the solubility (mole fraction) (in acetonitrile, 328 K) was 0.0135. The solubility (mole fraction) (in acetonitrile, 332.65 K) was 0.0165, the solubility (mole fraction) (in chloroform, 278.9 K) was 0.0132 and the solubility (mole fraction) (in chloroform, 283.85 K) was 0.0139. It also gave a solubility (mole fraction) (in chloroform, 288.55 K) of 0.0147, a solubility (mole fraction) (in chloroform, 293.85 K) of 0.0174 and a solubility (mole fraction) (in chloroform, 298.3 K) of 0.0212. For the same compound, the solubility (mole fraction) (in chloroform, 303.25 K) was 0.0244, the solubility (mole fraction) (in chloroform, 308.05 K) was 0.0302 and the solubility (mole fraction) (in chloroform, 313.15 K) was 0.0364. The solubility (mole fraction) (in chloroform, 317.75 K) was 0.0421, the solubility (mole fraction) (in chloroform, 322.75 K) was 0.0508 and the solubility (mole fraction) (in ethanol, 278.85 K) was 0.0199. For the same compound, the solubility (mole fraction) (in ethanol, 283.75 K) was 0.023, the solubility (mole fraction) (in ethanol, 288.55 K) was 0.0265 and the solubility (mole fraction) (in ethanol, 293.65 K) was 0.0315. It also gave a solubility (mole fraction) (in ethanol, 298.35 K) of 0.0349, a solubility (mole fraction) (in ethanol, 303.55 K) of 0.0403 and a solubility (mole fraction) (in ethanol, 308.55 K) of 0.046. The solubility (mole fraction) (in ethanol, 313.25 K) was 0.0528, the solubility (mole fraction) (in ethanol, 318.05 K) was 0.0592 and the solubility (mole fraction) (in ethanol, 323.15 K) was 0.065. For the same compound, the solubility (mole fraction) (in ethyl acetate, 293.75 K) was 0.00129, the solubility (mole fraction) (in ethyl acetate, 298.35 K) was 0.00141 and the solubility (mole fraction) (in ethyl acetate, 303.35 K) was 0.00187. It also gave a solubility (mole fraction) (in ethyl acetate, 308.15 K) of 0.00231, a solubility (mole fraction) (in ethyl acetate, 313.35 K) of 0.0028 and a solubility (mole fraction) (in ethyl acetate, 318 K) of 0.00372. For the same compound, the solubility (mole fraction) (in ethyl acetate, 322.75 K) was 0.00445, the solubility (mole fraction) (in ethyl acetate, 328.25 K) was 0.00563 and the solubility (mole fraction) (in ethyl acetate, 333.55 K) was 0.00714. The solubility (mole fraction) (in ethyl acetate, 337.65 K) was 0.00819, the solubility (mole fraction) (in ethyl acetate, 342.85 K) was 0.0102 and the solubility (mole fraction) (in methanol, 279.05 K) was 0.0374. It also gave a solubility (mole fraction) (in methanol, 283.75 K) of 0.0416, a solubility (mole fraction) (in methanol, 288.25 K) of 0.0472 and a solubility (mole fraction) (in methanol, 293.75 K) of 0.0527. The solubility (mole fraction) (in methanol, 298.65 K) was 0.0577, the solubility (mole fraction) (in methanol, 303.25 K) was 0.0653 and the solubility (mole fraction) (in methanol, 308.45 K) was 0.0725. It also gave a solubility (mole fraction) (in methanol, 312.95 K) of 0.0792, a solubility (mole fraction) (in methanol, 317.75 K) of 0.0862 and a solubility (mole fraction) (in methanol, 322.65 K) of 0.0968. It also gave a solubility (mole fraction) (in water, 283.55 K) of 0.00713, a solubility (mole fraction) (in water, 288.85 K) of 0.00723 and a solubility (mole fraction) (in water, 294.7 K) of 0.007. It also gave a solubility (mole fraction) (in water, 298.25 K) of 0.00711, a solubility (mole fraction) (in water, 303.3 K) of 0.00736 and a solubility (mole fraction) (in water, 308.25 K) of 0.00757. It also gave a solubility (mole fraction) (in water, 313.35 K) of 0.00805, a solubility (mole fraction) (in water, 318.3 K) of 0.00861 and a solubility (mole fraction) (in water, 323.15 K) of 0.00911. The solubility (mole fraction) (in water, 328.05 K) was 0.0102, the solubility (mole fraction) (in water, 332.9 K) was 0.0112 and the solubility (mole fraction) (in water, 338.15 K) was 0.0128. It also gave a solubility (mole fraction) (in water, 343.15 K) of 0.0142.
